Measurements from patent US20100316729A1, “Use of Hyperbaric Conditions to Provide Neuroprotection” (AIR PRODUCTS AND CHEMICALS, INC., priority 2007, published 2010).
“Also recorded” adds a separate entry of the source.

Tested on: organotypic hippocampal slice cultures (focal trauma to the CA1 region)
Experiment: in vitro model of traumatic brain injury: focal mechanical trauma to organotypic hippocampal slices, injury quantified by propidium iodide fluorescence
Format: cell-based, C57/BL6 mice
Details: for effect of added pressure of gas on development of total injury, highest added pressure / effect of added pressure of gas on development of total injury, low added pressures: gas added to 1 atm of 95% air/5% CO2, FIG. 4 / FIG. 5; for effect of added pressure of gas on development of total injury, highest added pressure: highest pressure tested (about 2 atm added, about 3 atm total); for effect of added pressure of gas on development of total injury, low added pressures: low added pressures (up to about 1 atm); for predicted level of normalized injury after 72 hours / observed degree of normalized injury after 72 hours: normobaric; for predicted level of normalized injury after 72 hours: 75% test gas replacing nitrogen, calculated from dashed lines of FIG. 4 / FIG. 5; for observed degree of normalized injury after 72 hours: 75% test gas/20% oxygen/5% CO2 (test gas substituted for nitrogen), 37° C., injury relative to control (75% nitrogen, 1 atm, 72 h) = 1
Description: The properties of xenon and other gases were investigated in an in vitro model of traumatic brain injury (as described below in greater detail, under the heading “Example”). The model chosen involved creating a focal mechanical trauma centered on the CA1 region of cultured hippocampal brain slices, and assessing neurological injury using propidium iodide staining. A small solenoid retains a stylus 5 mm above a cultured hippocampal slice which is positioned using a micromanipulator. A fiber-optic light source illuminates the slice from beneath. As shown in (B) the stylus is constrained in a glass capillary and positioned just above the CA1 region of the hippocampus.
Organotypic hippocampal slice cultures were prepared as reported by Stoppini L, et al in “A simple method for organotypic cultures of nervous tissue” J Neurosci Methods 1991; 37:173-82, subject to some modifications. Briefly, brains were removed from seven-day-old C57/BL6 mice pups (Harlan UK Ltd., Bicester, Oxfordshire, UK) and placed in ice-cold “preparation” medium. The preparation medium contained Gey's balanced salt solution and 5 mg ml^−1 D-glucose (BDH Chemicals Ltd., Poole, Dorset, UK). The hippocampi were removed from the brains and 400 μm thick transverse slices were prepared using a McIllwain tissue chopper. Slices were transferred into ice-cold preparation medium, gently separated and then placed onto tissue culture inserts (Millicell-CM, Millipore Corporation, Billerica, Mass.) which were inserted into a six-well tissue culture plate. The wells contained “growth” medium which consisted of 50% Minimal Essential Media Eagle, 25% Hank's balanced salt solution, 25% inactivated horse serum, 2 mM L-glutamine, 5 mg ml^−1 D-glucose (BDH) and 1% antibiotic-antimycotic suspension. Slices were incubated at 37° C. in a 95% air/5% CO2 humidified atmosphere. The growth medium was changed every three days. Experiments were carried out after 14 days in culture.
After the hippocampal slices had been in culture for 14 days, the growth medium was changed to “experimental” medium. The experimental medium was serum-free and consisted of 75% Minimal Essential Media Eagle, 25% Hank's balanced salt solution, 2 mM L-glutamine, 5 mg ml^−1 D-glucose, 1% antibiotic-antimycotic suspension and 4.5 μM propidium iodide.
The trauma to the slices was produced with a specially designed apparatus (FIG. 1) which was based on published descriptions (Adamchik Y, et al “Methods to induce primary and secondary traumatic damage in organotypic hippocampal slice cultures” Brain Res Brain Res Protoc 2000; 5:153-8 and Adembri C, et al “Erythropoietin attenuates post-traumatic injury in organotypic hippocampal slices” J Neurotrauma 2004; 21:[…], 21). Under a stereomicroscope a stylus was positioned 5 mm above the CA1 region of the hippocampus using a three-axis micromanipulator. The stylus dropped onto the slice with an impact of 3.5 μJ when power to a small electromagnet was switched off. […] The distal part of the stylus was smooth and rounded in order to prevent perforation of the slice and the impact produced a focal injury with a diameter of 750±17 μm (mean±SD).
After traumatizing the CA1 region, the culture trays were transferred to a small pressure chamber which contained a high-speed fan for rapid gas mixing. The pressure chamber was capable of maintaining a constant pressure of up to six atmospheres for several days. The pressure chamber was housed in an incubator which was set at 37° C. for normothermic experiments or 32° C. for experiments at moderate hypothermia. Subsequently, the pressure chamber (gas volume 0.925 litre) was flushed with humidified control gas (95% air and 5% CO2) for 5 min at 5 litres min^−1 which ensures better than 99.99% gas replacement. After flushing, the pressure chamber was sealed, and slices under these conditions were considered to be the “injury controls” (75% nitrogen/20% oxygen/5% CO2). […]

SMILES	effect of added pressure of gas on development of total injury, highest added pressure	effect of added pressure of gas on development of total injury, low added pressures	predicted level of normalized injury after 72 hours	observed degree of normalized injury after 72 hours	theoretical effect of increased gas level per se (effects of helium/pressure subtracted) (dashed line in FIG. 4, independent of the effects of pressure)	injury outcome with added nitrogen compared with added helium (nitrogen substituted for helium as added gas, all pressures 0.25-2 atm added, FIG. 4)
[Xe] [xenon]	toxicity; also recorded: significant neurotoxicity	marked neuroprotection	0.59	0.50±0.04		
[He] [helium]	came back close to control levels	potent neuroprotection; also recorded: injury decreased	0.75	0.67±0.10		
N#N [nitrogen]					detrimental in a fashion that is roughly linear with increasing amounts	significantly worse injury outcome
